In brackets after ≈: the same amount, converted by molar mass. Non-standard residues stand in square brackets, D forms with d. Residues, ends and D or L forms follow the SMILES beside them. *: point of attachment. Palmitoyl = CCCCCCCCCCCCCCCC(=O)*; Lauroyl = CCCCCCCCCCCC(=O)*; Hexanoyl = CCCCCC(=O)*
Assays:
Format in all cases: cell-based
[1] = test system: Candida albicans ATCC 18804; test: MIC in yeasts, NCCLS M27-A2 broth microdilution, RPMI 1640 (Table 9, letter e); settings: ATCC 18804
Protocol: Briefly, RPMI 1640 supplemented with glutamine and phenol red as a pH indicator was used in the broth microdilution method. A 96-well plate was inoculated so that the final inoculum of yeast for each well contained between 0.5×10^3 and 2.5×10^3 CFU/milliliter. […] Plates were incubated for 24 to 48 hours at 37° C. The lowest concentration of peptide that contained no visible growth was determined as the MIC. MIC values that utilized this method of MIC determination are indicated in Table 9 with a subscript letter “e.” “Peptide Number” corresponds to peptide compositions and corresponding designations in Table 3.

[2] = test system: Staphylococcus aureus ATCC 29213; test: MIC, NCCLS M7-A6 broth microdilution, cation-adjusted Mueller Hinton broth (Table 9, no superscript); settings: ATCC 29213
In short: (§1)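 MIC, read as the lowest peptide concentration without visible growth compared with peptide-free wells, after overnight incubation at 37° C. Wells held cation-adjusted Mueller Hinton broth and a final inoculum of 5×10^5 to 1×10^6 CFU/mL from log-phase culture.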

[3] = test system: Staphylococcus epidermidis ATCC 12228; test: MIC, NCCLS M7-A6 broth microdilution (Table 9, no superscript); settings: ATCC 12228
In short: as §1

[4] = test system: Salmonella dublin (Lane); test: as above
In short: as §1

[5] = test system: Pseudomonas aeruginosa ATCC 27853; test: as above; settings: ATCC 27853
In short: as §1

[6] = test system: Escherichia coli ATCC 25922; test: as above; settings: ATCC 25922
In short: as §1

SMILES | MIC C. albicans [1] [e ug/mL] | MIC S. aureus [2] [µg/mL] | MIC S. epidermidis [3] [µg/mL] | MIC S. dublin [4] [µg/mL] | MIC P. aeruginosa [5] [µg/mL] | MIC E. coli [6] [µg/mL]
CCCCCCCCCCCC(=O)N[C@@H](CCCNC(=N)N)C(=O)N[C@@H](CO)C(=O)N[C@@H](CCCNC(=N)N)C(=O)N[C@@H](Cc1c[nH]c2ccccc12)C(=O)N[C@@H](CCCNC(=N)N)C(=O)N[C@@H](CC(=O)O)C(=O)N[C@H](C(N)=O)C(C)C [Peptide 103, Lauryl-RSRWRDV-NH2] (Lauroyl-RSRWRDV-NH2) | >64 | >32 | 64 (≈ 55.4 µM) | >64 | >64 | >64
CCCCCCCCCCCC(=O)N[C@@H](Cc1c[nH]c2ccccc12)C(=O)N[C@@H](CCCNC(=N)N)C(=O)N[C@@H](CC(=O)O)C(=O)N[C@H](C(=O)N[C@@H](C)C(=O)N[C@@H](CCCNC(=N)N)C(=O)N[C@@H](CC(N)=O)C(=O)N[C@@H](Cc1ccccc1)C(=O)N[C@@H](CCSC)C(=O)N[C@@H](CCCNC(=N)N)C(N)=O)C(C)C [Peptide 112, Lauryl-WRDVARNFMR-NH2] (Lauroyl-WRDVARNFMR-NH2) | >64 | >64 | – | >64 | – | –

Now from value to compound:

MIC C. albicans [1] [e ug/mL] | MIC S. aureus [2] [µg/mL] | MIC S. epidermidis [3] [µg/mL] | MIC S. dublin [4] [µg/mL] | MIC P. aeruginosa [5] [µg/mL] | MIC E. coli [6] [µg/mL] | SMILES
16 | 32 (≈ 21.4 µM) | 16 (≈ 10.7 µM) | >64 | 64 (≈ 42.8 µM) | >64 | CCCCCCCCCCCC(=O)N[C@H](CCCNC(=N)N)C(=O)N[C@H](CO)C(=O)N[C@H](CCCNC(=N)N)C(=O)N[C@H](Cc1c[nH]c2ccccc12)C(=O)N[C@H](CCCNC(=N)N)C(=O)N[C@H](CC(=O)O)C(=O)N[C@@H](C(=O)N[C@H](C)C(=O)N[C@H](CCCNC(=N)N)C(=O)N[C@H](CC(N)=O)C(N)=O)C(C)C [Peptide 117, Lauryl-rsrwrdvarn-NH2] (Lauroyl-[dR][dS][dR][dW][dR][dD][dV][dA][dR][dN]-NH2)
16 | 32 (≈ 26.1 µM) | 16 (≈ 13 µM) | 64 (≈ 52.2 µM) | 32 (≈ 26.1 µM) | 64 (≈ 52.2 µM) | CCCCCCCCCCCC(=O)N[C@H](CCCNC(=N)N)C(=O)N[C@H](CO)C(=O)N[C@H](CCCNC(=N)N)C(=O)N[C@H](Cc1c[nH]c2ccccc12)C(=O)N[C@H](CCCNC(=N)N)C(=O)N[C@H](CC(=O)O)C(=O)N[C@@H](C(=O)N[C@H](C)C(N)=O)C(C)C [Peptide 119, Lauryl-rsrwrdva-NH2] (Lauroyl-[dR][dS][dR][dW][dR][dD][dV][dA]-NH2)
64 | – | – | – | – | – | CCCCCC(=O)N[C@H](CCCNC(=N)N)C(=O)N[C@H](CO)C(=O)N[C@H](CCCNC(=N)N)C(=O)N[C@H](Cc1c[nH]c2ccccc12)C(=O)N[C@H](CCCNC(=N)N)C(=O)N[C@H](CC(=O)O)C(=O)N[C@@H](C(=O)N[C@H](C)C(=O)N[C@H](CCCNC(=N)N)C(=O)N[C@H](CC(N)=O)C(=O)N[C@H](Cc1ccccc1)C(=O)N[C@H](CC(C)C)C(=O)N[C@H](CCCNC(=N)N)C(N)=O)C(C)C [Peptide 251, Hexyl-rsrwrdvarnflr-NH2] (Hexanoyl-[dR][dS][dR][dW][dR][dD][dV][dA][dR][dN][dF][dL][dR]-NH2)
– | 32 (≈ 16.2 µM) | 4 (≈ 2.03 µM) | >64 | 64 (≈ 32.5 µM) | >64 | CCCCCCCCCCCCCCCC(=O)N[C@H](CCCNC(=N)N)C(=O)N[C@H](CO)C(=O)N[C@H](CCCNC(=N)N)C(=O)N[C@H](Cc1c[nH]c2ccccc12)C(=O)N[C@H](CCCNC(=N)N)C(=O)N[C@H](CC(=O)O)C(=O)N[C@@H](C(=O)N[C@H](C)C(=O)N[C@H](CCCNC(=N)N)C(=O)N[C@H](CC(N)=O)C(=O)N[C@H](Cc1ccccc1)C(=O)N[C@H](CC(C)C)C(=O)N[C@H](CCCNC(=N)N)C(N)=O)C(C)C [Peptide 254, Palmityl-rsrwrdvarnflr-NH2] (Palmitoyl-[dR][dS][dR][dW][dR][dD][dV][dA][dR][dN][dF][dL][dR]-NH2)

From US20050282755A1, “Compositions having antimicrobial activity and uses thereof” (priority 2004, published 2005)
